Measured values: patent US11116771B2, “G protein-coupled receptor (GPCR) modulation by imipridones” (Oncoceutics, Inc., priority 2016, dated 2021)
≈ marks a conversion by molar mass, not a printed value. Entries after “also recorded” stand apart in the source; their conditions may differ. Structures can show the parent of a compound that is named as a salt. Where two headings read alike, the source gives them in different places.

Assays:
[1] = target: DRD2 alanine-scan mutation library (Homo sapiens, UniProt P14416, Y199A)
[2] = target: DRD2 alanine-scan mutation library (Homo sapiens, UniProt P14416, C118A)
[3] = target: DRD2 alanine-scan mutation library (Homo sapiens, UniProt P14416, L81A)
[4] = target: DRD2 alanine-scan mutation library (Homo sapiens, UniProt P14416, S197A)
[5] = target: DRD2 alanine-scan mutation library (Homo sapiens, UniProt P14416, I128A)
[6] = target: DRD2 alanine-scan mutation library (Homo sapiens, UniProt P14416, N23A)
[7] = target: DRD2 alanine-scan mutation library (Homo sapiens, UniProt P14416, C107A)
[8] = target: DRD2 alanine-scan mutation library (Homo sapiens, UniProt P14416, A177S)
[9] = target: DRD2 alanine-scan mutation library (Homo sapiens, UniProt P14416, S419A)
[10] = target: DRD2 alanine-scan mutation library (Homo sapiens, UniProt P14416, R132A)
[11] = target: DRD2 alanine-scan mutation library (Homo sapiens, UniProt P14416, I377A)
[12] = target: DRD2 alanine-scan mutation library (Homo sapiens, UniProt P14416, F189A)
[13] = target: DRD2 alanine-scan mutation library (Homo sapiens, UniProt P14416, V83A)
[14] = target: DRD2 alanine-scan mutation library (Homo sapiens, UniProt P14416, V190A)
[15] = target: DRD2 alanine-scan mutation library (Homo sapiens, UniProt P14416, T205A)
[16] = target: DRD2 alanine-scan mutation library (Homo sapiens, UniProt P14416, E248A)
[17] = target: DRD2 alanine-scan mutation library (Homo sapiens, UniProt P14416, I394A)
[18] = target: DRD2 alanine-scan mutation library (Homo sapiens, UniProt P14416, C182A)
[19] = target: DRD2 alanine-scan mutation library (Homo sapiens, UniProt P14416, T165A)
[20] = target: DRD2 alanine-scan mutation library (Homo sapiens, UniProt P14416, D114A)
[21] = target: DRD2 alanine-scan mutation library (Homo sapiens, UniProt P14416, Y416A)
[22] = target: DRD2 alanine-scan mutation library (Homo sapiens, UniProt P14416, S121A)
[23] = target: DRD2 alanine-scan mutation library (Homo sapiens, UniProt P14416, D80A)
[24] = target: DRD2 alanine-scan mutation library (Homo sapiens, UniProt P14416, E95A)
[25] = target: DRD2 alanine-scan mutation library (Homo sapiens, UniProt P14416, S193A)
[26] = target: DRD2 alanine-scan mutation library (Homo sapiens, UniProt P14416, T119A)
[27] = target: DRD2 alanine-scan mutation library (Homo sapiens, UniProt P14416, W386A)
[28] = target: DRD2 alanine-scan mutation library (Homo sapiens, UniProt P14416, F198A)
[29] = target: DRD2 alanine-scan mutation library (Homo sapiens, UniProt P14416, I184A)
[30] = target: DRD2 alanine-scan mutation library (Homo sapiens, UniProt P14416, I122A)
[31] = target: DRD2 alanine-scan mutation library (Homo sapiens, UniProt P14416, Y192A)
[32] = target: DRD2 alanine-scan mutation library (Homo sapiens, UniProt P14416, L125A)
[33] = target: DRD2 alanine-scan mutation library (Homo sapiens, UniProt P14416, V196A)
[34] = target: DRD2 alanine-scan mutation library (Homo sapiens, UniProt P14416, H393A)
[35] = target: DRD2 alanine-scan mutation library (Homo sapiens, UniProt P14416, I397A)
[36] = target: DRD2 alanine-scan mutation library (Homo sapiens, UniProt P14416, V91A)
[37] = target: DRD2 alanine-scan mutation library (Homo sapiens, UniProt P14416, S7A)
[38] = tested on: Pseudomonas aeruginosa ATCC# 9027; settings: 1:300 with TSB Mod Dilution; inoculum count 28
[39] = tested on: Bacillus subtilis ATCC# 6633; settings: 1:300 with TSB Mod Dilution; inoculum count 52
[40] = tested on: Candida albicans ATCC# 10231; settings: 1:300 with TSB Mod Dilution
[41] = tested on: Aspergillus brasiliensis ATCC# 16404; settings: 1:300 with TSB Mod Dilution
[42] = tested on: Staphylococcus aureus ATCC# 6538
HFF (Normal Fibroblast) = experiment: Cell viability, HFF normal fibroblasts
[43] = tested on: MHH-ES-1 (Ewing's sarcoma); experiment: Cell viability, MHH-ES-1; type: cell-based; settings: Homo sapiens, 5 nM-5 μM, 72 h, n=3
[44] = tested on: DRD2 (short and long isoforms); experiment: β-arrestin recruitment GPCR reporter assay, DRD2; type: cell-based
human cancer cells = experiment: Viability of human cancer cells at 72 hours post-treatment; type: cell-based; settings: relative to the potency of ONC201; viability of human cancer cells at 72 hours post-treatment
[45] = tested on: Staphylococcus aureus ATCC 700699; experiment: MIC by micro-broth dilution, S. aureus ATCC 700699; type: cell-based; settings: Staphylococcus aureus, ATCC700699, ATCC 700699 (48 hours)
[46] = tested on: NCI60 cancer cell line panel; experiment: NCI60 cancer cell line panel; type: cell-based; settings: NCI60 panel (FIG. 16)
MOLM14 AML cells = experiment: Cell viability, MOLM14 AML cells; type: cell-based; settings: Homo sapiens, MOLM-14, 5 nM-5 μM, 72 h, n=3
K562 (CML) = experiment: Cell viability, K562; type: cell-based; settings: Homo sapiens, 5 nM-5 μM, 72 h, n=3
[47] = tested on: Staphylococcus aureus ATCC 33591; experiment: MIC by micro-broth dilution, S. aureus ATCC 33591; type: cell-based; settings: ATCC33591
[48] = tested on: Staphylococcus aureus ATCC 29213; experiment: MIC by micro-broth dilution, S. aureus ATCC 29213; type: cell-based; settings: ATCC29213
MV411 AML cells = experiment: Cell viability, MV411 AML cells; type: cell-based
[49] = tested on: Ewing's sarcoma cell lines; experiment: Anti-cancer efficacy in Ewing's sarcoma cell lines; type: cell-based; settings: 16 Ewing's sarcoma cell lines (FIG. 20)
[50] = Rat non-GLP oral single dose study; type: in vivo; settings: rat non-GLP oral single dose study

DRD2 alanine-scan mutation library (Homo sapiens, UniProt P14416, V91A), sequence (P14416 whole entry V91A): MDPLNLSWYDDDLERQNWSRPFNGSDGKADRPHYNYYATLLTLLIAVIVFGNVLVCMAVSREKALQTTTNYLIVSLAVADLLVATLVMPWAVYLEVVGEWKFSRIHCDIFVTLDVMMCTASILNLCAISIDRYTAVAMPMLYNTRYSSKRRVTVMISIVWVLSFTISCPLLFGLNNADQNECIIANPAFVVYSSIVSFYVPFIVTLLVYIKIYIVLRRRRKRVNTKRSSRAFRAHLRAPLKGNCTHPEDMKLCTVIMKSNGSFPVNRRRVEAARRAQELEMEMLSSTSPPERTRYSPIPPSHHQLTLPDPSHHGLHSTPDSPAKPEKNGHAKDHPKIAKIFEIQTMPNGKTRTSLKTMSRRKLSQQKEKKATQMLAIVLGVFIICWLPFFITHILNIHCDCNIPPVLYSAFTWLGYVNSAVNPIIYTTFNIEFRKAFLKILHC
DRD2 alanine-scan mutation library (Homo sapiens, UniProt P14416, R132A), sequence (P14416 whole entry R132A): as the sequence (P14416 whole entry V91A) above, with A91V, R132A counted along it
DRD2 alanine-scan mutation library (Homo sapiens, UniProt P14416, S121A), sequence (P14416 whole entry S121A): as the sequence (P14416 whole entry V91A) above, with A91V, S121A counted along it
DRD2 alanine-scan mutation library (Homo sapiens, UniProt P14416, F189A), sequence (P14416 whole entry F189A): as the sequence (P14416 whole entry V91A) above, with A91V, F189A counted along it
DRD2 alanine-scan mutation library (Homo sapiens, UniProt P14416, I394A), sequence (P14416 whole entry I394A): as the sequence (P14416 whole entry V91A) above, with A91V, I394A counted along it
DRD2 alanine-scan mutation library (Homo sapiens, UniProt P14416, L81A), sequence (P14416 whole entry L81A): as the sequence (P14416 whole entry V91A) above, with L81A, A91V counted along it
DRD2 alanine-scan mutation library (Homo sapiens, UniProt P14416, A177S), sequence (P14416 whole entry A177S): as the sequence (P14416 whole entry V91A) above, with A91V, A177S counted along it
DRD2 alanine-scan mutation library (Homo sapiens, UniProt P14416, C118A), sequence (P14416 whole entry C118A): as the sequence (P14416 whole entry V91A) above, with A91V, C118A counted along it
DRD2 alanine-scan mutation library (Homo sapiens, UniProt P14416, D114A), sequence (P14416 whole entry D114A): as the sequence (P14416 whole entry V91A) above, with A91V, D114A counted along it
DRD2 alanine-scan mutation library (Homo sapiens, UniProt P14416, E248A), sequence (P14416 whole entry E248A): as the sequence (P14416 whole entry V91A) above, with A91V, E248A counted along it
DRD2 alanine-scan mutation library (Homo sapiens, UniProt P14416, S7A), sequence (P14416 whole entry S7A): as the sequence (P14416 whole entry V91A) above, with S7A, A91V counted along it

SMILES: NCCc1ccc(O)c(O)c1 [Dopamine, dopamine]
- Calcium Flux % WT [1]: 20 % WT
- Calcium Flux % WT [2]: 14 % WT
- Calcium Flux as a % of flux with WT DRD2 (100), Dopamine 1 nM [3]: 83%
- Calcium Flux % WT [4]: 0 % WT
- Calcium Flux % WT [5]: 27 % WT
- Calcium Flux % WT [6]: 25 % WT
- Calcium Flux % WT [7]: 20 % WT
- Calcium Flux as a % of flux with WT DRD2 (100), Dopamine 1 nM [8]: 85%
- Calcium Flux % WT [9]: 20 % WT
- Calcium Flux % WT [10]: 3 % WT
- Calcium Flux % WT [11]: 11 % WT
- Calcium Flux % WT [12]: 22 % WT
- Calcium Flux % WT [13]: 10 % WT
- Calcium Flux % WT [14]: 20 % WT
- Calcium Flux % WT [15]: 24 % WT
- Calcium Flux % WT [16]: 19 % WT
- Calcium Flux % WT [17]: 16 % WT
- Calcium Flux % WT [18]: 0 % WT
- Calcium Flux as a % of flux with WT DRD2 (100), Dopamine 1 nM [19]: 92%
- Calcium Flux % WT [20]: 4 % WT
- Calcium Flux % WT [21]: 12 % WT
- Calcium Flux % WT [22]: 16 % WT
- Calcium Flux % WT [23]: 3 % WT
- Calcium Flux as a % of flux with WT DRD2 (100), Dopamine 1 nM [24]: 123%
- Calcium Flux % WT [25]: 1 % WT
- Calcium Flux % WT [26]: 1 % WT
- Calcium Flux % WT [27]: 15 % WT
- Calcium Flux % WT [28]: 10 % WT
- Calcium Flux % WT [29]: 0 % WT
- Calcium Flux % WT [30]: 23 % WT
- Calcium Flux as a % of flux with WT DRD2 (100), Dopamine 1 nM [31]: 64%
- Calcium Flux % WT [32]: 25 % WT
- Calcium Flux as a % of flux with WT DRD2 (100), Dopamine 1 nM [33]: 119%
- Calcium Flux % WT [34]: 4 % WT
- Calcium Flux as a % of flux with WT DRD2 (100), Dopamine 1 nM [35]: 105%
- Calcium Flux as a % of flux with WT DRD2 (100), Dopamine 1 nM [36]: 119%
- Calcium Flux % WT [37]: 15 % WT

SMILES: Cc1ccccc1CN1C(=O)C2=C(CCN(Cc3ccccc3)C2)N2CCN=C12 [ONC201 dihydrochloride]
- Indicator Organisms Count, Pa [38]: 24
- Indicator Organisms Count, Bs [39]: 48
- Indicator Organisms Count, Ca (TSA) ([40]; inoculum count 48): 51
- Indicator Organisms Count, CA (SDA) ([40]; inoculum count 52): 46
- Indicator Organisms Count, Ab (SDA) ([41]; inoculum count 20): 19
- Indicator Organisms Count, Ab (TSA) ([41]; inoculum count 21): 18
- Indicator Organisms Count, Sa [42]: 0

SMILES: O=C1C2=C(CCN(Cc3ccccc3)C2)N2CCN=C2N1Cc1ccc(F)cc1F [ONC206]
- IC50 (HFF (Normal Fibroblast); Homo sapiens, Fibroblast, 72 h): > 5000 nM
- in vitro toxicity to normal cells (HFF (Normal Fibroblast); Table 12): no in vitro toxicity to normal cells at therapeutic doses
- IC50 [43]: 610 nM
- GPCR activity, DRD2 [44]: improved DRD2 antagonism
- Relative Potency* (human cancer cells): A (A Indicates a potency increase of >2-fold of ONC201)
- MIC90 ([45]; read-out: MIC90): 12.5 µg/mL (≈ 30.6 µM)
- MIC ([45]; read-out: MIC95): 12.5 µg/mL (≈ 30.6 µM)
- MIC99 ([45]; read-out: MIC99): 25 µg/mL (≈ 61.2 µM)
- MIC ([45]; read-out: MIC, Visual): 12.5 µg/mL (≈ 30.6 µM)
- anti-cancer efficacy across tumor types [46]: demonstrated anti-cancer efficacy
- IC50 (MOLM14 AML cells): 270 nM
- IC50 (K562 (CML)): 220 nM
- MIC ([47]; Staphylococcus aureus (ATCC 33591), methicillin resistant, read-out: MIC): 12.5 µg/mL (≈ 30.6 µM)
- MIC90 ([47]; Staphylococcus aureus, ATCC 33591, 24 hours, read-out: MIC90): 12.5 µg/mL (≈ 30.6 µM)
- MIC ([47]; Staphylococcus aureus, ATCC 33591, 24 hours, read-out: MIC95): 25 µg/mL (≈ 61.2 µM)
- MIC99 ([47]; Staphylococcus aureus, ATCC 33591, 24 hours, read-out: MIC99): > 100 µg/mL
- MIC ([47]; Staphylococcus aureus, ATCC 33591, 24 hours, read-out: MIC, Visual): 12.5 µg/mL (≈ 30.6 µM)
- MIC ([48]; wild type Staphylococcus aureus (ATCC 29213), read-out: MIC): 6.25 µg/mL (≈ 15.3 µM)
- MIC90 ([48]; Staphylococcus aureus, ATCC 29213, 24 hours, read-out: MIC90): 6.25 µg/mL (≈ 15.3 µM)
- MIC ([48]; Staphylococcus aureus, ATCC 29213, 24 hours, read-out: MIC95): 6.25 µg/mL (≈ 15.3 µM)
- MIC99 ([48]; Staphylococcus aureus, ATCC 29213, 24 hours, read-out: MIC99): 6.25 µg/mL (≈ 15.3 µM)
- MIC ([48]; Staphylococcus aureus, ATCC 29213, 24 hours, read-out: MIC, Visual): 6.25 µg/mL (≈ 15.3 µM)
- IC50 (MV411 AML cells; Homo sapiens, MV4-11, MV411, 5 nM-5 μM, 72 h, n=3): 200 nM
- fold improvement compared to ONC201 in in vitro potency (MV411 AML cells; cell lines of Table 12): up to 20 fold
- anti-cancer efficacy [49]: nanomolar range in 14 out of 16; also recorded: superior efficacy compared to ONC201 in all cell lines
- NOAEL [50]: 125 mg/kg
